Five compounds from patent publication US4046897A, “5-Mercaptopyridoxine alkanesulfonates and methods of use and pharmaceutical compositions” (Merck & Co., Inc., priority 1976, dated 1977) can be followed below.

Counter-ions that a name gives are not always drawn.

The nature of the data set: Comparison of thermal stability of 5-MP salts (pure unformulated compound, colorimetric assay for intact thiol group). The data set is classed as physicochemical. To be noted: for Thermal Stability % Remaining: pure unformulated salt. How it is done:
Thus, in order to evaluate the relative stability of several salts of 5-mercaptopyridoxine, the test salts selected (i.e., the ethane-1,2-disulfonate, the phosphate, the sulfamate, the nitrate and the hydrochloride) were subjected to accelerated conditions of high temperature as the pure, unformulated, compound. The high temperature date obtained at 80° C. and at 105° C. is conventionally used in the pharmaceutical industry to screen compounds in as short a time as possible. Where a number of derivatives or salts are available, comparative data can be obtained and the test compounds can be ranked in an expected order of stability. The thermally stressed salts were assayed colorimetrically for intact thiol group. The ethanedisulfonate, hydrochloride and sulfamate salts also were subjected to NMR analysis to confirm the chemical analysis. The NMR data supports the chemical data.

Regarding `Cc1ncc(CS)c(CO)c1O` [Ethanedisulfonate, Bis(2-methyl-3-hydroxy-4-hydroxymethyl-5-mercaptomethyl-pyridinium) ethane-1,2-disulfonate], the “Thermal Stability % Remaining” value (80° C, 1 week, 10080 min) is given as 101.0%; the “Thermal Stability % Remaining” value (80° C, 3 weeks, 30240 min) came to 100.2%; the “Thermal Stability % Remaining” value (105° C, 3 days, 4320 min) was 97.3%; the “Thermal Stability % Remaining” value (105° C, 7 days, 10080 min) came out at 99.4%. For the same compound, the “relative thermal/chemical stability among 5-MP salts (in words)” value (at the temperatures employed (80° C and 105° C)) is recorded as “most stable salt”.

On to `Cc1ncc(CS)c(CO)c1O` [Hydrochloride, 5-mercaptopyridoxine hydrochloride], for which the “Thermal Stability % Remaining” value is, setting by setting: (80° C, 1 week, 10080 min, hydrochloride) 70.5%; (80° C, 3 weeks, 30240 min, hydrochloride) 57.3%; (105° C, 3 days, hydrochloride, 4320 min) 57.3%.

As for `Cc1ncc(CS)c(CO)c1O` [Nitrate], the “Thermal Stability % Remaining” value (80° C, 1 week, 10080 min) is reported as 87.2%.

With `Cc1ncc(CS)c(CO)c1O` [Phosphate], the “Thermal Stability % Remaining” value is listed as 93.0% (105° C, 3 days, 4320 min) and 58.0% (105° C, 7 days, 10080 min).

For `Cc1ncc(CS)c(CO)c1O` [Sulfamate], the “Thermal Stability % Remaining” value came to 94.0% (80° C, 1 week, 10080 min); 75.7% (80° C, 3 weeks, 30240 min); 13.0% (105° C, 3 days, 4320 min); 8.8% (105° C, 7 days, 10080 min).
